Test results as given in patent US6166065A, “2,3-dioxabicyclo[3.3.1]nonane derivatives and antimalarial pharmaceutical compositions comprising them” (Yeda Research and Development Co., Ltd., priority 1997, dated 2000).
Read-outs that look alike come from different tables or passages of the source.

What was measured:
[1] = tested on: Plasmodium falciparum (NF54); experiment: In vitro antimalarial activity, [3H]hypoxanthine incorporation into chloroquine-sensitive P. falciparum (NF 54); format: cell-based
Protocol: the protozoan Plasmodium falciparum is a causative agent of malaria. The antimalarial activity of 2,3-dioxabicyclo[3.3.1]nonanes of type A was determined by measuring the incorporation of [^3 H]hypoxanthine, by the methods of Desjardins^9 and Milhous,^10 into […] Plasmodium falciparum (NF54)^11 in the presence of varying drug concentrations. Dose-response response curves that were fit to the experimental data by means of the Marquardt algorithm^12 were solved for the drug concentration that kills 50% of parasites (IC50), and were analyzed for accuracy of fit (R^2 value, typically ≥0.99). Provisional IC50 values were obtained in a survey of seven 5-fold dilutions (in triplicate) of stock solutions of chromatographically-purified or recrystalized test compound. Assay were later expanded to include ten concentrations (in quadruplicate) of ~1.8-fold dilutions, which flank the provisional IC50.
Tables 1-3 present tabulations of a number of compounds that have been synthesized along with the IC50 (in nM).

[2] = tested on: Plasmodium yoelii (ssp. NS); experiment: In vivo antimalarial activity against chloroquine-resistant Plasmodium yoelii (ssp. NS), four-day test in mice; settings: sc, P. yoelii (ssp. NS), subcutaneous, daily dose, fourday test
Protocol: (§1) Based on the in vitro antimalarial activity of compounds of type A, the in vivo antimalarial activity of two representatives, namely of compounds 23a and 34a, were tested.
(§2) *ED50 and ED90 are given as the daily dose in mg/Kg, repeated
(§3) every 4 days. Substances were administered to mice subcutaneously and
(§4) tested by the fourday test.^14,15

[3] = tested on: Plasmodium berghei (N strain); experiment: In vivo antimalarial activity against chloroquine-sensitive Plasmodium berghei (N strain), four-day test in mice; settings: sc, P. berghei (N strain), subcutaneous, daily dose, fourday test
Protocol: as §1, §2, §3, §4

[4] = cited from earlier work
[5] = tested on: Plasmodium berghei (N strain); design: ED90: unit not given beside the values; ED50: unit not given here; settings: against P. berghei; cited from earlier work
[6] = rats, high doses; cited from earlier work
[7] = tested on: Plasmodium yoelii (ssp. NS); design: ED90: unit not given beside the values; ED50: unit not given here; settings: against P. yoelii; cited from earlier work
[8] = tested on: Plasmodium falciparum (NF54); settings: recorded under the same conditions; cited from earlier work
[9] = tested on: mouse neuroblastoma cells; settings: cited from earlier work
[10] = Plasmodium falciparum, NF54, Survey data (provisional; seven 5-fold dilutions in triplicate)
[11] = Plasmodium falciparum, NF54, Expansion data (ten concentrations, quadruplicate, ~1.8-fold dilutions)

Work on `C[C@]1(CSc2ccccc2)OOC2C[C@@H]1C[C@H](OC(=O)c1ccccc1)[C@]2(C)O` (stereo in doubt) [Compound 4a, (1R,4S,5S,7S,8S)-7-benzoyloxy-4,8-dimethyl-4-phenylthiomethyl-2,3-dioxabicyclo[3.3.1]nonan-8-ol] yielded an IC50 [1, 10] of 110 nM.

Work on `C[C@@]1(O)CC[C@@H]2C[C@H]1OO[C@@]2(C)CS(=O)(=O)c1ccccc1` [Compound 21a, (1R,4R,5R,8R)-4,8-dimethyl-4-phenylsulfonylmethyl-2,3-dioxabicyclo [3.3.1]nonan-8-ol] yielded an IC50 [1, 11] of 55 nM.

With `C[C@]1(CS(=O)(=O)c2ccccc2)OO[C@@H]2C[C@H]1CC[C@@]2(C)O` [Compound 21b, (1R,4S,5R,8R)-4,8-dimethyl-4-phenylsulfonylmethyl-2,3-dioxabicyclo[3.3.1]nonan-8-ol] the IC50 [1, 11] was 89 nM.

For `C[C@H]1CC[C@@H]2C[C@H]1OO[C@@]2(C)CS(=O)(=O)c1ccccc1` [Compound 22a, (1R,4R,5R,8S)-4,8-dimethyl-4-phenylsulfonylmethyl-2,3-dioxabicyclo [3.3.1]nonane], the IC50 [1, 11] was 17 nM.

Work on `C[C@H]1CC[C@@H]2C[C@H]1OO[C@]2(C)CS(=O)(=O)c1ccccc1` [Compound 22b, (1R,4S,5R,8S)-4,8-dimethyl-4-phenylsulfonylmethyl-2,3-dioxabicyclo[3.3.1]nonane] yielded an IC50 [1, 11] of 24 nM.

For `CC(=O)O[C@]1(C)CC[C@@H]2C[C@H]1OO[C@@]2(C)CS(=O)(=O)c1ccccc1` [Compound 23a, (1R,4R,5R,8R)-8-acetoxy-4,8-dimethyl-4-phenylsulfonylmethyl-2,3-dioxabicyclo [3.3.1]nonane], the ED50 [2] was 12.5 mg/kg, the ED90 [2] was 28 mg/kg/day and the IC50 [1, 11] was 17 nM. The ED50 [3] was 3.7 mg/kg and the ED90 [3] was 7.3 mg/kg/day.

`CC(=O)O[C@]1(C)CC[C@@H]2C[C@H]1OO[C@]2(C)CS(=O)(=O)c1ccccc1` [Compound 23b, (1R,4S,5R,8R)-8-acetoxy-4,8-dimethyl-4-phenylsulfonylmethyl-2,3-dioxabicyclo[3.3.1]nonane] gave an IC50 [1, 11] of 17 nM.

For `CC(=O)CC(=O)O[C@]1(C)CC[C@@H]2C[C@H]1OO[C@@]2(C)CS(=O)(=O)c1ccccc1` [Compound 24a, (1R,4R,5R,8R)-8-acetylacetoxy-4,8-dimethyl-4-phenylsulfonylmethyl-2,3-dioxabicyclo[3.3.1]nonane], the IC50 [1, 11] was 46 nM.

`CC(=O)CC(=O)O[C@]1(C)CC[C@@H]2C[C@H]1OO[C@]2(C)CS(=O)(=O)c1ccccc1` [Compound 24b, (1R,4S,5R,8R)-8-acetylacetoxy-4,8-dimethyl-4-phenylsulfonylmethyl-2,3-dioxabicyclo [3.3.1]nonane] gave an IC50 [1, 11] of 73 nM.

In the case of `CCOC(=O)C(=O)O[C@]1(C)CC[C@@H]2C[C@H]1OO[C@@]2(C)CS(=O)(=O)c1ccccc1` [Compound 25a, (1R,4R,5R,8R)-8-ethoxyoxyalyloxy-4,8-dimethyl-4-phenylsulfonylmethyl-2,3-dioxabicyclo [3.3.1]nonane], the IC50 [1, 11] is reported as 170 nM.

In the case of `CCOC(=O)C(=O)O[C@]1(C)CC[C@@H]2C[C@H]1OO[C@]2(C)CS(=O)(=O)c1ccccc1` [Compound 25b, (1R,4S,5R,8R)-8-ethoxyoxalyloxy-4,8-dimethyl-4-phenylsulfonylmethyl-2,3-dioxabicyclo [3.3.1]nonane], the IC50 [1, 11] is reported as 140 nM.

With `C[C@@]1(OC(=O)C(=O)N(Cc2ccccc2)Cc2ccccc2)CC[C@@H]2C[C@H]1OO[C@@]2(C)CS(=O)(=O)c1ccccc1` [Compound 26a, (1R,4R,5R,8R)-8-dibenzylaminooxalyloxy-4,8-dimethyl-4-phenylsulfonylmethyl-2,3-dioxabicyclo[3.3.1]nonane] the IC50 [1, 11] was 21 nM.

Work on `C[C@]1(CS(=O)(=O)c2ccccc2)OO[C@@H]2C[C@H]1CC[C@@]2(C)OC(=O)C(=O)N(Cc1ccccc1)Cc1ccccc1` [Compound 26b, (1R,4S,5R,8R)-dibenzylaminooxalyloxy-4,8-dimethyl-4-phenylsulfonylmethyl-2,3-dioxabicyclo[3.3.1]nonane] yielded an IC50 [1, 11] of 81 nM.

`C[C@@]1(OC(=O)Oc2ccccc2)CC[C@@H]2C[C@H]1OO[C@@]2(C)CS(=O)(=O)c1ccccc1` [Compound 27a, (1R,4R,5R,8R)-4,8-dimethyl-8-phenoxycarbonyloxy-4-phenylsulfonylmethyl-2,3-dioxabicyclo[3.3.1]nonane] showed an IC50 [1, 11] of 47 nM.

`C[C@]1(CS(=O)(=O)c2ccccc2)OO[C@@H]2C[C@H]1CC[C@@]2(C)OC(=O)Oc1ccccc1` [Compound 27b, (1R,4S, 5R,8R)-4,8-dimethyl-8-phenoxycarbonyloxy-4-phenylsulfonylmethyl-2,3-dioxabicyclo[3.3.1]nonane] showed an IC50 [1, 11] of 150 nM.

With `C[C@@]1(O)[C@@H]2C[C@H](C[C@@H]1OC(=O)c1ccccc1)[C@@](C)(CS(=O)(=O)c1ccccc1)OO2` [Compound 29a, (1S,4S,5S,7S,8S)-7-benzoyloxy-4,8-dimethyl-4-phenylsulfonylmethyl-2,3-dioxabicyclo[3.3.1]nonan-8-ol] the IC50 [1, 10] was 250 nM.

`CCCCS(=O)(=O)C[C@@]1(C)OO[C@H]2C[C@@H]1C[C@H](OC(=O)c1ccccc1)[C@]2(C)O` [Compound 30a, (1S,4S,5S,7S,8S)-7-benzoyloxy-4-n-butylsulfonylmethyl-4,8-dimethyl-2,3-dioxabicyclo[3.3.1]nonan-8-ol] gave an IC50 [1, 10] of 300 nM.

Compound `COc1ccc(CO[C@]2(C)CC[C@@H]3C[C@H]2OO[C@@]3(C)CS(=O)(=O)c2ccccc2)cc1` [Compound 34a, (1R,4R,5R,8R)-4,8-dimethyl-8-(p-methoxybenzyloxy)-4-phenylsulfonylmethyl-2,3-dioxabicyclo[3.3.1]nonane] has an ED50 [2] of 4.8 mg/kg, an ED90 [2] of 8.3 mg/kg/day and an IC50 [1, 11] of 14 nM. The ED50 [3] was 1.3 mg/kg and the ED90 [3] was 2.3 mg/kg/day.

Compound `CC(C)=CCO[C@]1(C)CC[C@@H]2C[C@H]1OO[C@@]2(C)CS(=O)(=O)c1ccccc1` [Compound 35a, (1R,4R,5R,8R)-4,8-dimethyl-8-(γ,γ-dimethylallyloxy)-4-phenylsulfonylmethyl-2,3dioxabicyclo[3.3.1]nonane] has an IC50 [1, 11] of 35 nM.

For `C[C@@]1(OC/C=C/c2ccccc2)CC[C@@H]2C[C@H]1OO[C@@]2(C)CS(=O)(=O)c1ccccc1` [Compound 36a, (1R,4R,5R,8R)-8-(trans-cinnamyloxy)-4,8-dimethyl-4-phenylsulfonylmethyl-2,3-dioxabicyclo[3.3.1]nonane], the IC50 [1, 11] was 32 nM.

Work on `CC1=CC[C@@H]2C[C@H]1OO[C@@]2(C)CS(=O)(=O)c1ccccc1` [Compound 37a, (1R,4R,5R)-4,8-dimethyl-4-phenylsulfonylmethyl-2,3-dioxabicyclo[3.3.1]non-7-ene] yielded an IC50 [1, 10] of 490 nM.

Compound `C[C@@]12O[C@@H]1C[C@@H]1C[C@H]2OO[C@@]1(C)CS(=O)(=O)c1ccccc1` [Compound 39a, (1R,4R,5R,7R,8R)-7,8-epoxy-4,8-dimethyl-4-phenylsulfonylmethyl-2,3-dioxabicyclo[3.3.1]nonane] has an IC50 [1, 11] of 92 nM.

Compound `CC(=O)O[C@]1(C)CC[C@@H]2C[C@H]1OO[C@@]2(C)C[S+]([O-])c1ccccc1` (stereo partly drawn) [Compound 41a, (1R,4R,5R,8R)-8-acetoxy-4,8-dimethyl-4-phenylsulfinylmethyl-2,3-dioxabicyclo[3.3.1]nonanes] has an IC50 ([1]; Expansion data (ten concentrations, quadruplicate, ~1.8-fold dilutions)) of 40 nM and an IC50 ([1]; Expansion data (ten concentrations, quadruplicate, ~1.8-fold dilutions), listed as 41a') of 14 nM.

With `CC(=O)O[C@]1(C)CC[C@@H]2C[C@H]1OO[C@]2(C)C[S+]([O-])c1ccccc1` (stereo partly drawn) [Compound 41b, (1R,4S,5R,8R)-8-acetoxy-4,8-dimethyl-4-phenylsulfinylmethyl-2,3-dioxabicyclo[3.3.1]nonanes] the IC50 [1, 11] was 71 nM.

For `C[C@@H]1C(=O)C[C@H]2C[C@@H]1OO[C@@]2(C)/C=C\c1ccc(C(F)(F)F)cc1C(F)(F)F` [arteflene], the “in vitro and in vivo antimalarial screening, clinical trials” value [4] is given as “gave encouraging results”, the ED50 [5] is given as 2.7 and the ED90 [5] is given as 3.9.

In the case of `CO[C@H]1O[C@@H]2O[C@@]3(C)CC[C@H]4[C@H](C)CC[C@@H]([C@H]1C)[C@@]24OO3` [artemether], the neurotoxicity [6] is given as “neurotoxicity has been seen”.

For `C[C@@H]1CC[C@H]2[C@@H](C)C(=O)O[C@@H]3O[C@@]4(C)CC[C@@H]1[C@]32OO4` [artemisinin], the ED50 [7] is given as 5.8, the ED90 [7] is given as 10.0 and the ED50 [5] is given as 0.95. The ED90 [5] was 2.5 and the IC50 [8] was 11 nM.

In the case of `C[C@@H]1CC[C@H]2[C@@H](C)C(O)O[C@@H]3O[C@@]4(C)CC[C@@H]1[C@]32OO4` (stereo partly shown) [dihydroarte-mesinin], the neurotoxicity [9] is listed as “neurotoxicity has been seen”.
